Counter-ions that a name gives are not always drawn.
Experiments:
[1] = tested on: Mouse preadipocyte strain 3T3-L1; test: Inhibition of differentiation as an indication of acetic acid uptake; format: cell-based; details: Mus musculus, 3T3-L1, 0.1 μM test substance, control (0.01% dimethylsulfoxide) = 100%, read-out: Rate of Uptake (%) of [2-14C] acetic acid
Experimental: As the basal medium, Dulbecco's modified Eagle's (DEM) medium (NISSUI PHARMACEUTICAL CO., LTD) was used. […] All culturing in the present Test Example was carried out in a CO2 incubator at 37° C. and 10% CO2 concentration.
The successively cultured 3T3-L1 cells were inoculated in a Biocoat Collagen I 96-well white/clear plate (Becton Dickinson and Co.) at a concentration of 4,900 cells/well, and were cultured in the basal medium containing added 10% (v/v) inactivated bovine fetal serum (FBS) for 10 days.
The medium was replaced with a differentiation-inducing medium in which inactivated FBS (final concentration: 5%), insulin (Sigma-Aldrich Japan K. K., final concentration: 10 μg/mL), isobutyl methyl xanthine (Aldrich K. K., final concentration: 0.5 mM) and dexamethazone (final concentration: 1 μM) were added so as to be at the final concentrations indicated in the parentheses. The cells were divided in the following 2 groups and were cultured for 4 days; 1) in the presence of 0.01% (v/v) dimethylsulfoxide, and 2) in the presence of 0.01% (v/v) dimethylsulfoxide in which was dissolved 1 mM of the test substance (final concentration of 0.1 μM). Then, the medium was further replaced with a maintenance medium in which inactivated […] and insulin were added to the base medium so as to be at final concentrations of 5% and 100 ng/mL, respectively, and the cells were cultured for 2 days.
The inhibitory activity of the test compound against cell differentiation was assayed by using uptake of [2-^14C] acetic acid into the cultured cells as an indicator. […] Then the cells were further incubated with the newly prepared medium for 1 hr. After washing the well with PBS (−), the cells were dried. To these wells, 100 μL/well of a scintillation cocktail (Hewlett-Packard Co., MICROSCINT-20 PACKARD) were added and their radioactivities were determined with a Packard TopCont microplate Scintillation Counter (Hewlett-Packard Co., PACKARD) and the uptake level of [2-^14C] acetic acid into the cultured cell was calculated.
On the basis of the calculated uptake level of [2-^14C] acetic acid into the cultured cells, the relative uptake level of [2-^14C] acetic acid in the group treated with the test compound was calculated against the uptake level of [2-^14C] acetic acid in the presence of 0.01% (v/v) dimethylsulfoxide solution described in 1) (100%).
Value=Uptake Level (cpm) of [2-^14C] Acetic Acid in the Presence of the Test Substance
Control=Uptake Level (cpm) of [2-^14C] Acetic Acid in the Control Group (0.01% dimethylsulfoxide)
Uptake Rate (%) of [2-^14C] Acetic Acid=100×[Value]/[Control]

leptin production = test: Enhancing activity for leptin production in adipocytes (ELISA); format: cell-based, rat; details: Rattus norvegicus, Adipocyte, 24 h, leptin concentration as % of control group, read-out: Facilitating activity to produce leptin; for activity at 0.1 µM: 100 nm
Experimental: Hanks solution was used for collection of adipose tissue. The Hanks solution was prepared by filtration of a mixed solution (pH: 7.5) of 120 mM NaCl, 4.8 mM KCl, 0.74 mM MgSO4, 0.30 mM Na2HPO4, 0.40 mM KH2PO4, 20 mM HEPES, 0.05% (w/v) glucose, 2% (w/v) BSA (Sigma-Aldrich Japan K. K., Cat. No. A7888), 0.95 mM CaCl2, 4.17 mM NaHCO3 and 1% (v/v) penicillin-streptomycin liquid (GIBCO BRL, Cat. No. 15140-122). The adipocytes were cultured in Dulbecco's modified Eagle's medium (GIBCO BRL, Cat. No. 11995-040) mixed with DMEM/F-12 (GIBCO BRL, Cat. No. 11320-033) at a ratio of 1:1, and added 0.2% (v/v) Hanks solution, 0.2 μg/L sodium selenite (GIBCO BRL, Cat. No. 13012-018), 0.002% (v/v) ethanolamine, 25 mM HEPES and 1% (v/v) penicillin-streptomycin liquid (GIBCO BRL, Cat. No. 15140-122). As many as possible of the other reagents used were special grade. In this experiment, the cells were cultured in a CO2 incubator (37° C., 95% humidity, 5% CO2).
Male Wistar Imamichi rats of 6 weeks old were sacrificed by bleeding following decapitation, and adipose tissue was removed from the epididymis and sectioned after the vessels were removed in warmed Hanks solution at 37° C. and were weighed. One (1) mL of Hanks solution containing 10 mg collagenase (Wako Pure Chemical Industries, Ltd., 034-10533) was added to the adipose tissue prepared. The solution was transferred into a tube having a volume of 50 mL, and the cells were evenly dispersed by incubation under gentle shaking at 37° C., 90 rpm, for 50 min. Then 20 mL of Hanks solution were added and filtrated through Nylon-mesh with a mesh diameter of 200 μm for removal of undigested tissue pieces. The floating adipocytes were separated from sediments and substances located in the lower layer by centrifugation at 1,000 rpm for 1 min at room temperature. The sediment and 22 mL of the low layer were pulled out with a probe, and the floating adipocytes were recovered. This procedure was repeated twice with Hanks solution and for 4 times with the culture medium. After these procedures the adipocytes were suspended in the culture medium at a volume of 60 mL per 1 g of the adipose tissue weighed previously. 100 μL of the suspended solution were plated in each well of a 96-well microplate (ASAHI TECHNO GLASS Corp.) In the group treated with the test compound, 1 μL/well of DMSO solution containing the dissolved the test compound at concentrations of 200 μM, 20 μM, 2 μM and 0.2 μM (final concentrations of the test compound: 1 μM, 100 nM, 10 nM and 1 nM, respectively) was plated in each of the well. In the control group, 1 μL/well of DMSO (final concentration: 0.1% (v/v)) was plated in each well. The plate was placed stationary in a CO2 incubator for 1 hr or longer, and the contents in the solution were equilibrated at 37° C. After they were equilibrated, the solution in each well was stirred with a magnetic stirrer in a water bath and the suspended solution maintained at 37° C. was plated into each well of the plate at 100 μL/well. After incubation of the cells for 24 hr, the suspended solution of cells was filtrated through a filter for the microplate, MultiScreen (MILLOPORE, MDV-N65). The concentration of leptin in the filtrated solution was determined with ELISA methods by using a Rat Leptin Determination Kit-IBL (Immuno-Biological Laboratories Co., Ltd., Cat. No. 17195). The facilitating activity of the compound to produce leptin was calculated from the following equation based on the concentration of leptin determined.
Facilitating Activity of the Compound to Produce Leptin (%)=(A/B)×100
A: Concentration of Leptin in the Treated Group with the Test Compound.
B: Concentration of Leptin in the Control Group.

Rat white adipocytes = test: Inhibition of the differentiation of adipocytes (Oil Red O); format: cell-based; details: 100 nM test compound, 5 days, Oil Red O ABS550, control = 100%, blank = 0%, Table 3; for activity at 0.1 µM: Rattus norvegicus, Adipocyte, 120 h, read-out: Rate of Differentiation (%)
Experimental: Rat white adipocytes contained in the white adipocyte culture kit purchased from HOKUDO were used. As the medium for proliferation and for differentiation-inducing, the medium contained in the white adipocyte culture kit purchased from HOKUDO was used. The cells in the present experiment were cultured in a CO2 incubator (37° C., 95% R.H., 5% CO2).
Immediately after arrival of the purchased cells, all medium for transportation was discarded and replaced with 5 ml of proliferation medium (/25 cm^2-flask) and the cells were cultured for one day. Then, a cell suspension was prepared with proliferation medium so as to be 83,000 cells/mL, and the cell suspension was plated into a type I 96-well collagen-coated microplate (SUMITOMO BAKELITE CO., ltd.) so as to be 5,000 cells/well (60 μL/well).
On the next day, all the proliferation medium was discarded and replaced with 147 μL/well of differentiation-inducing medium. Further, 1) in the group treated with the test compound, 3 μL/well of the solution, in which a test compound (100 μM) was dissolved in DMSO solution and diluted with differentiation-inducing medium by 20 times (final concentration of the test compound: 100 nM, final concentration of DMSO solution: 0.1% (v/v)), were added to the well where the cells were plated. 2) In the control group, 3 μL/well of DMSO solution that was diluted with differentiation-inducing medium by 20 times (final concentration of DMSO: 0.1% (v/v)) were added to the well where the cells were plated. Further, 3) in the blank group, 3 μL/well of DMSO solution that was diluted with differentiation-inducing medium by 20 times (final concentration: 0.1% (v/v)), was added to the blank well.
After culturing for 5 days, all differentiation-inducing medium was discarded and replaced with 60 μL of 10% (v/v) formaldehyde solution (for fixation) in each well and the cells were kept stationary for 20 min at room temperature. After this, the fixative solution was discarded and replaced with 60 μL of 0.2% (v/v) Triton X (Sigma-Aldrich Japan K. K.) solution in each well and kept stationary for 5 min at room temperature. Then all Triton X solution was discarded and replaced with 60 μL of 60% (v/v) isopropanol solution containing dissolved Oil Red O (Sigma-Aldrich Japan K. K.) so as to be 0.3%, which was adipose tissue staining solution, and the well was left stationary for 10 min at room temperature. After the adipose tissue staining solution was discarded, the well was washed twice with 60 JIL of 60% isopropanol solution. Then, 100 μL of the DMSO solution were added to each well and stirred for 5 min at room temperature, The absorbance was measured at 550 nm (ABS550) with a multi-plate reader (LabSystems), and the stained amount with Oil Red O was determined. The measured level at ABS550 in the control group was defined as 100%, while the level at ABS550 in the blank group was defined as 0%. The differentiation rate (%) of the adipocytes treated with the test compound was calculated.

SMILES | activity at 0.1 µM [1] | activity at 0.1 µM (Rat white adipocytes) | other results
Cc1cccc(C(C)C)c1NC(=O)c1cc([N+](=O)[O-])ccc1Cl [Example 19, N-(2-Isopropyl-6-methylphenyl)-(2-chloro-5-nitrophenyl)carboxamide] | 64.8% | – | –
O=C(O)c1ccc(NC(=O)c2cc([N+](=O)[O-])ccc2Cl)cc1 [Example 27, 4-[(2-Chloro-5-nitrophenyl)carbonylamino]benzoic Acid] | 66% | – | –
CCOC(=O)c1c[nH]nc1NC(=O)c1cc([N+](=O)[O-])ccc1Cl [Example 71, N-(4-Ethoxycarbonylpyrazol-3-yl)-(2-chloro-5-nitrophenyl)carboxamide] | 65.8% | – | –
CC(=O)Oc1c(C)c(C)c2c(c1C)C(=O)CC(C)(COc1ccc(NC(=O)c3cc([N+](=O)[O-])ccc3Cl)cc1)O2 (centres unmarked) [Example 91, N-[4-(6-Acetoxy-2,5,7,8-tetramethyl-4-oxochroman-2-ylmethoxy)phenyl]-(2-chloro-5-nitrophenyl)carboxamide] | 85.8% | – | activity at 1 µM (leptin production): 114%; activity at 0.1 µM (leptin production): 110%
CCCCCCCCCCCCCCc1sc(NC(=O)c2cc([N+](=O)[O-])ccc2Cl)nc1-c1ccccc1 [Example 109, N-(4-Phenyl-5-tetradecylthiazol-2-yl)-(2-chloro-5-nitrophenyl)carboxamide] | 64.6% | – | activity at 1 µM (leptin production): 112%
Cc1ccc(NS(=O)(=O)c2ccc(NC(=O)c3cc([N+](=O)[O-])ccc3Cl)cc2)cc1 [Example 144, N-[4-(4-Tolylaminosulfonyl)phenyl]-(2-chloro-5-nitrophenyl)carboxamide] | 82.2% | – | –
Nc1ccc(NC(=O)c2cc([N+](=O)[O-])ccc2Cl)cc1 [Example 180, N-(4-Aminophenyl)-(2-chloro-5-nitrophenyl)carboxamide] | – | – | Rate of Differentiation (%) (Rat white adipocytes): 59.1%
CCCCCCCCN(CCCCCCCC)c1ccc(-c2ccc(NC(=O)c3cc([N+](=O)[O-])ccc3Cl)cc2)cc1 [Example 185, N-[4-[4-(N,N-Dioctylamino)phenyl]phenyl]-(2-chloro-5-nitrophenyl)carboxamide Hydrochloride] | – | – | activity at 1 µM (leptin production): 123%; activity at 0.01 µM (leptin production; 10 nm): 122%; activity at 0.1 µM (leptin production): 132%
CCCCN(C)c1ccc(-c2ccc(NC(=O)c3cc([N+](=O)[O-])ccc3Cl)cc2)cc1 [Example 210, N-[4-[4-(N-Butyl-N-methylamino)phenyl]phenyl]-(2-chloro-5-nitrophenyl)carboxamide] | – | 47.6% | –
CCCN(C)c1ccc(-c2ccc(NC(=O)c3cc([N+](=O)[O-])ccc3Cl)cc2)cc1 [Example 213, N-[4-[4-(N-Methyl-N-propylamino)phenyl]phenyl]-(2-chloro-5-nitrophenyl)carboxamide] | – | 47.4% | –
CCCCCN(C)c1ccc(-c2ccc(NC(=O)c3cc([N+](=O)[O-])ccc3Cl)cc2)cc1 [Example 215, N-[4-[4-(N-Methyl-N-pentylamino)phenyl]phenyl]-(2-chloro-5-nitrophenyl)carboxamide] | – | 45.2% | –
O=C(Nc1ccc(C(O)(C(F)(F)F)C(F)(F)F)cc1)c1cc([N+](=O)[O-])ccc1Cl [Example 237, N-[4-(2,2,2-Trifluoro-1-hydroxy-1-trifluoromethylethyl)phenyl]-(2-chloro-5-nitrophenyl)carboxamide] | – | 46.9% | –
